Earlier results on one compound are cited in patent publication US7018649B2 (Euro-Celtique, S.A., priority 2000, dated 2006).

The conditions of data set [1]: in vivo.
Assay in data set [2]: not given
The source holds these as a separate data set.

In data set [3] the test system is plasma-protein.

As to `CCOC(=O)C1=C(C)NC(C)=C(C(=O)OC)C1c1cccc(Cl)c1Cl` (racemic) [felodipine, 4-(2,3-dichlorophenyl)-1,4-dihydro-2,6-dimethyl-3,5-pyridinedicarboxylate], the “solubility in dichloromethane and ethanol” value (dichloromethane and ethanol) was “freely soluble”. Further, where the note is “water”, the solubility in water result is on record as “not soluble”. In addition, in data set [1], the “most common adverse side effects” value was “peripheral edema and headaches”. Also, the “time to mean peak concentrations” value in data set [2] (after administration) was 2.5 to 5 h. In data set [2] (after metabolism), the “excretion in the feces” value was 10% and the “excretion in the urine” value is recorded as 70%. The “onset of antihypertensive activity” value in data set [2] (following administration) is 2 to 5 h. Further, the “plasma concentration at steady state” value in data set [2] (in vivo) was 2 ng/mL. The bioavailability entry in data set [2] (oral dose, gastrointestinal absorption) was “approximately 20%”. For the same compound, the plasma-protein bound in data set [3] is given as 99%.
